Data from ChEMBL document CHEMBL1156272, “Discovery and SAR of novel pyrazole-based thioethers as cathepsin S inhibitors. Part 2: Modification of P3, P4, and P5 regions” (Bioorg Med Chem Lett, 2010).

Columns and labels:
Cathepsin S [1] = biological target: T1, Cathepsin S (Homo sapiens, UniProt P25774); assay: Inhibition of cathepsin S in human JY cells assessed as accumulation of invariant chain p10 fragment after 24 hrs by Western blot analysis; type: cell-based
Cathepsin S [2] = biological target: T1, Cathepsin S; assay: Inhibition of human cathepsin S by ADAM-28 substrate-based fluorescence assay
[3] = biological target: Voltage-gated inwardly rectifying potassium channel KCNH2 (Homo sapiens, UniProt Q12809); assay: Inhibition of human ERG by astemizole binding assay
Sequence of Voltage-gated inwardly rectifying potassium channel KCNH2 (Q12809 whole entry): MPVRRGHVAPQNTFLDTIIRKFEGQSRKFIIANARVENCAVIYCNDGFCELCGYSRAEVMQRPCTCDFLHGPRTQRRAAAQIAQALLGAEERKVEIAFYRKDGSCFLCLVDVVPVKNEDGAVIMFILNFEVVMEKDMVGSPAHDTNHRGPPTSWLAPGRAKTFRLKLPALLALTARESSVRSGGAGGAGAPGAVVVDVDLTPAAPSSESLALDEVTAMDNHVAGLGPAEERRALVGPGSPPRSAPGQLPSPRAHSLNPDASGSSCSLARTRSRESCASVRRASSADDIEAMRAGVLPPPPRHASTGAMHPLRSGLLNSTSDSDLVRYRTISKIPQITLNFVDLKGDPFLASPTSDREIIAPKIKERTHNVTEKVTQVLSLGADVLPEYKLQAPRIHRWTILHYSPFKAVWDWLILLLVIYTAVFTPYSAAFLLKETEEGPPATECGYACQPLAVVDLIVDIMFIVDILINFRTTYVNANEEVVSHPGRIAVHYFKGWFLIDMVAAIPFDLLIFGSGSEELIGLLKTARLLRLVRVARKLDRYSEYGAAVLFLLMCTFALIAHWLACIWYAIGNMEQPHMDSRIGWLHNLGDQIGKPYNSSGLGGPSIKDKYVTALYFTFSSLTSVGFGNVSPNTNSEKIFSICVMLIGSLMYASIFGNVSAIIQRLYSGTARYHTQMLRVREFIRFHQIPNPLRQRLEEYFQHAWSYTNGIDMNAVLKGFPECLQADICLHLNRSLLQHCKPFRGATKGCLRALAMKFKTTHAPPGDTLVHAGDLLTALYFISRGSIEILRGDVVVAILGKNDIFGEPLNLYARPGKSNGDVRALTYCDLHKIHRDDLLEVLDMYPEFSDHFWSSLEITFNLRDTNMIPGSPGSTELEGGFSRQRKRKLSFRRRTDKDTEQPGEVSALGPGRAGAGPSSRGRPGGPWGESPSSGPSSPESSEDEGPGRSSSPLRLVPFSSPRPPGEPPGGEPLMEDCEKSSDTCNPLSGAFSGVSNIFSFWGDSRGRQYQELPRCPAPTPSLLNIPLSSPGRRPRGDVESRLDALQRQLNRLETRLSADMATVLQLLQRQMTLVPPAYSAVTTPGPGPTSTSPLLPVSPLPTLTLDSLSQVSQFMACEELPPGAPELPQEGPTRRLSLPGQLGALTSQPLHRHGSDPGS

T1 sequence (P25774 whole entry, the tested form may be a part): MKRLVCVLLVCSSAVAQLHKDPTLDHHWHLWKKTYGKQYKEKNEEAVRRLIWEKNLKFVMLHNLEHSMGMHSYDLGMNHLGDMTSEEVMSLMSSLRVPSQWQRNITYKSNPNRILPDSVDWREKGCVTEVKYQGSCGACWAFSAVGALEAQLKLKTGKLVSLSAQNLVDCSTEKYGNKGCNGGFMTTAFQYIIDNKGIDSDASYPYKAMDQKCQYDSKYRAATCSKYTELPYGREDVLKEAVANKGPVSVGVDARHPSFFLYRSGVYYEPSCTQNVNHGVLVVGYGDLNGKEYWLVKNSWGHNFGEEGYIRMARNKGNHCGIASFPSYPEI

Structure (SMILES) | IC50 (Cathepsin S [1]) [nM] | IC50 (Cathepsin S [2]) [nM] | inhibition (INH) [3]
CS(=O)(=O)N1CCc2c(c(-c3ccc(C(F)(F)F)c(SCCN4CCC(F)CC4)c3)nn2C[C@H](O)CN2CCCCC2)C1 | 810 | 395 | 
CC(=O)N1CCc2c(c(-c3ccc(C(F)(F)F)c(SCCN4CCC(F)CC4)c3)nn2C[C@@H](O)CN2CCCCC2)C1 |  | 385 | 
OC(CN1CCCCC1)Cn1nc(-c2ccc(C(F)(F)F)c(SCCN3CCC(F)CC3)c2)c2c1CCNC2 (stereo unspecified) |  | 9600 | 
CS(=O)(=O)N1CCc2c(c(-c3ccc(C(F)(F)F)c(SCCN4CCCCC4)c3)nn2CC(O)CN2CCC(C(=O)N3CCCC3)CC2)C1 (racemic) | 96 |  | 
CS(=O)(=O)N1CCc2c(c(-c3ccc(C(F)(F)F)c(SCCN4CCCCC4)c3)nn2CC(O)CN2CCN(C3CC3)CC2)C1 (racemic) | 220 |  | 
CS(=O)(=O)N1CCc2c(c(-c3ccc(C(F)(F)F)c(SCCN4CCCCC4)c3)nn2CC(O)CN2CCC(c3ccccn3)CC2)C1 (racemic) | 62 |  | Active
CS(=O)(=O)N1CCc2c(c(-c3ccc(C(F)(F)F)c(SCCN4CCCCC4)c3)nn2CC(O)CN2CCC(N3CCCC3=O)CC2)C1 (racemic) | 152 |  | 
CS(=O)(=O)N1CCc2c(c(-c3ccc(C(F)(F)F)c(SCCN4CCOCC4)c3)nn2CC(O)CN2CCCCC2)C1 (racemic) | 2520 | 420 | 
CS(=O)(=O)N1CCc2c(c(-c3ccc(C(F)(F)F)c(SCCN4CCCC4)c3)nn2CC(O)CN2CCCCC2)C1 (racemic) | 458 |  | 
CS(=O)(=O)N1CCc2c(c(-c3ccc(C(F)(F)F)c(SCCN4CCC(F)CC4)c3)nn2CC(O)CN2CCCCC2)C1 (racemic) | 493 |  | 
CS(=O)(=O)N1CCc2c(c(-c3ccc(C(F)(F)F)c(SCCN)c3)nn2CC(O)CN2CCCCC2)C1 (racemic) |  | 1130 | 
CCCNCC(O)Cn1nc(-c2ccc(C(F)(F)F)c(SCCN3CCCCC3)c2)c2c1CCN(S(C)(=O)=O)C2 (racemic) |  | 595 | 

More lines, in order of falling IC50 (Cathepsin S [2]), values ahead:

IC50 (Cathepsin S [1]) [nM] | IC50 (Cathepsin S [2]) [nM] | Structure (SMILES) | inhibition (INH) [3]
 | 355 | O=C(c1cccs1)N1CCc2c(c(-c3ccc(C(F)(F)F)c(SCCN4CCC(F)CC4)c3)nn2C[C@@H](O)CN2CCCCC2)C1 | 
401 | 335 | CS(=O)(=O)N1CCc2c(c(-c3ccc(C(F)(F)F)c(SCCN4CCCCC4)c3)nn2CC(O)CN2CCCC2)C1 (racemic) | 
889 | 325 | CS(=O)(=O)N1CCc2c(c(-c3ccc(C(F)(F)F)c(SCCN4CCCCC4)c3)nn2CC(O)CN2CCOCC2)C1 (racemic) | 
 | 245 | CC(O)C(=O)N1CCc2c(c(-c3ccc(C(F)(F)F)c(SCCN4CCC(F)CC4)c3)nn2C[C@@H](O)CN2CCCCC2)C1 (stereo partly specified) | 
 | 235 | NC(=O)N1CCc2c(c(-c3ccc(C(F)(F)F)c(SCCN4CCC(F)CC4)c3)nn2C[C@@H](O)CN2CCCCC2)C1 | 
 | 235 | O=C(CO)N1CCc2c(c(-c3ccc(C(F)(F)F)c(SCCN4CCC(F)CC4)c3)nn2C[C@@H](O)CN2CCCCC2)C1 | 
81 | 218 | CS(=O)(=O)N1CCc2c(c(-c3ccc(C(F)(F)F)c(SCCN4CCCCC4)c3)nn2CC(O)CN2CCC(C3CCCC3)CC2)C1 (racemic) | 
320 | 205 | O=C(c1nc[nH]n1)N1CCc2c(c(-c3ccc(C(F)(F)F)c(SCCN4CCC(F)CC4)c3)nn2C[C@@H](O)CN2CCCCC2)C1 | 
335 | 204 | CS(=O)(=O)N1CCc2c(c(-c3ccc(C(F)(F)F)c(SCCN4CCCCC4)c3)nn2CC(O)CN2CCCCC2)C1 (racemic) | 
190 | 70 | NC(=O)C(=O)N1CCc2c(c(-c3ccc(C(F)(F)F)c(SCCN4CCC(F)CC4)c3)nn2C[C@@H](O)CN2CCCCC2)C1 | 
120 | 58 | CS(=O)(=O)N1CCc2c(c(-c3ccc(C(F)(F)F)c(SCCN4CCC(F)CC4)c3)nn2C[C@@H](O)CN2CCCCC2)C1 | 
160 | 10 | CS(=O)(=O)N1CCc2c(c(-c3ccc(C(F)(F)F)c(SCCN4CCCCC4)c3)nn2CC(O)CN2CCC(c3ccccc3C#N)CC2)C1 (racemic) | Active
